Columns and labels:
hDHODH = biological target: T1, hDHODH (Homo sapiens, UniProt Q02127); assay: hDHODH enzyme inhibition assay (DCIP/UQ0, dihydroorotate-initiated); assay type: biochemical; conditions: for inhibition at 10 µM: compound at 10 µM, 10 nM purified hDHODH; for IC50: three independent tests, determined if inhibition at 10 μM was greater than 50%;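 on all read-outs here: recombinant hDHODH (Met30–Arg396) in HEPES pH 8.0 buffer with KCl and Triton X-100, reaction started by 500 µM dihydroorotate, inhibition from rate with inhibitor relative to uninhibited rate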
T1 construct: The plasmid pET-19b–hDHODH (Met30-Arg396) was transformed; inferred from the pET-19b vector and from purification on a chelating column with imidazole elution) (N); made in house; host or cells: E. coli BL21 (DE3)
T1 sequence (Q02127 29-395 limits assumed): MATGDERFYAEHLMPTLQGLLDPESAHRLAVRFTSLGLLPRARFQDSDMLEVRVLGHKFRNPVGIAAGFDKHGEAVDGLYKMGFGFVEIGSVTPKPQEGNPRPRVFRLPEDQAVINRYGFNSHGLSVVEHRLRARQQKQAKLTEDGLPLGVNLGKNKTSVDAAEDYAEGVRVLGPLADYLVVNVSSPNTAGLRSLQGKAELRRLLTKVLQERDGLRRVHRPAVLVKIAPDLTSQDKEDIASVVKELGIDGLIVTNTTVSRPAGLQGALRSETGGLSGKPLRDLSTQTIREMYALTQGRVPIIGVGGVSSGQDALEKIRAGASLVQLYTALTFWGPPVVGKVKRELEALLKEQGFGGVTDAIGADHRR
Experimental: The purified hDHODH was diluted into a final concentration of 10 nM with the assay buffer contained 50 mM HEPES pH 8.0, 150 mM KCl, 0.1% Triton X-100. […] The dihydroorotate was added to a final concentration of 500 μM to initiate the reaction. […] Inhibition rate was calculated from (1-Vi/V0) × 100. For the determination of the IC50 values, eight to nine different concentrations were applied. Each inhibitor concentration point was tested in triplicate. IC50 values were calculated using the sigmoidal fitting option of the program Origin 8.0.

| Compound | melting point [°C] | hDHODH inhibitory activity in words (hDHODH) | inhibition at 10 µM (hDHODH) [%] | IC50 (hDHODH) [µM] |
| --- | --- | --- | --- | --- |
| COC(=O)/C(C#N)=C1\SCC(=O)N1c1ccc(C(=O)Nc2ccc3ccccc3c2)cc1 [Compound 38, Methyl (Z)-2-cyano-2-(3-(4-(naphthalen-2-ylcarbamoyl)phenyl)-4-oxothiazolidin-2-ylidene)acetate] | 285 to 286 | inactive | 38.2 | > 10 |
| COC(=O)/C(C#N)=C1\SCC(=O)N1c1ccc(C(=O)NCc2ccccc2)cc1 [Compound 39, Methyl (Z)-2-(3-(4-(benzylcarbamoyl)phenyl)-4-oxothiazolidin-2-ylidene)-2-cyanoacetate] | 117.3 to 118.1 | inactive | 39.9 | > 10 |
| COC(=O)/C(C#N)=C1\SCC(=O)N1c1ccc(C(=O)Nc2ccccc2C(=O)O)cc1 [Compound 40, (Z)-2-(4-(2-(1-Cyano-2-methoxy-2-oxoethylidene)-4-oxothiazolidin-3-yl)benzamido)benzoic acid] | 261.8 to 262.5 | – | 34.5 | > 10 |

Next, values leading:

| melting point [°C] | hDHODH inhibitory activity in words (hDHODH) | inhibition at 10 µM (hDHODH) [%] | IC50 (hDHODH) [µM] | Compound |
| --- | --- | --- | --- | --- |
| 205.7 to 206.6 | – | 23.5 | > 10 | COC(=O)/C(C#N)=C1\SCC(=O)N1c1ccc(C(=O)Nc2cccc(C(=O)O)c2)cc1 [Compound 41, (Z)-3-(4-(2-(1-Cyano-2-methoxy-2-oxoethylidene)-4-oxothiazolidin-3-yl)benzamido)benzoic acid] |
| 217.3 to 218.1 | – | 36.8 | > 10 | COC(=O)/C(C#N)=C1\SCC(=O)N1c1ccc(C(=O)NCc2ccccc2C(=O)O)cc1 [Compound 42, (Z)-2-((4-(2-(1-cyano-2-methoxy-2-oxoethylidene)-4-oxothiazolidin-3-yl)benzamido)methyl)-benzoic acid] |
| 205.7 to 206.6 | – | 44 | > 10 | COC(=O)/C(C#N)=C1\SCC(=O)N1c1ccc(C(=O)NCc2cccc(C(=O)O)c2)cc1 [Compound 43, (Z)-3-((4-(2-(1-cyano-2-methoxy-2-oxoethylidene)-4-oxothiazolidin-3-yl)benzamido)methyl) benzoic acid] |
| 328.1 to 328.9 | – | 30.3 | > 10 | COC(=O)/C(C#N)=C1\SCC(=O)N1c1ccc(C(=O)Nc2ccc(C(C)(C)C)c(C(=O)O)c2)cc1 [Compound 44, (Z)-2-(tert-butyl)-5-(4-(2-(1-cyano-2-methoxy-2-oxoethylidene)-4-oxothiazolidin-3-yl)benzamido)benzoic acid] |
| 275 to 275.8 | – | 42.2 | > 10 | COC(=O)/C(C#N)=C1\SCC(=O)N1c1ccc(C(=O)Nc2ccc3c(C(C)=O)cccc3c2)cc1 [Compound 45, Methyl (Z)-2-(3-(4-((5-acetylnaphthalen-2-yl)carbamoyl)phenyl)-4-oxothiazolidin-2-ylidene)-2-cyanoacetate] |

— publication PMC6696179, “Structural Optimization and Structure–Activity Relationship of 4-Thiazolidinone Derivatives as Novel Inhibitors of Human Dihydroorotate Dehydrogenase” (Molecules, 2019)
